# Columns and labels:
# M. restricta = assay: Overlay assay, Log10 reduction (Kill) of M. restricta; assay type: cell-based, Malassezia restricta
# Description: (§1) Staphylococcus hominis (S. hominis, ATCC 27844), Cutibacterium acnes (C. acnes, ATCC6919), Staphylococcus aureus (S. aureus, ATCC 6538), and Malassezia restricta (M. restricta, ATCC 7877) were inoculated from freezer stock onto agar plates according to culture conditions as shown in table 1. Then, one loop of microbes from agar plate was inoculated into a liquid culture system according to the culture condition as shown in table 1. M. restricta were reinoculated on MLNA plate twice before use. Cell density of bacteria (S. hominis, C. acnes and S. aureus) was adjusted to concentration at 10^8 cfu/mL for further use based on absorption at 600 nm. Cell density of M. restricta was adjusted to concentration at 10^8 cfu/mL for further use based on absorption at 610 nm.
# (§2) On Day 0, 15 mL of TSA containing (1) 2% Trehalose and 10^6 cfu/ml S. hominis, (2) 10^6 cfu/ml S. hominis alone (without trehalose), and (3) 2% trehalose alone (without S. hominis) was solidified in a […] petri dish and cultured at 37° C. for four days. TSA agar without S. hominis nor trehalose was prepared in parallel as control. […]
# (§3) At the end, Log10 reduction (Kill) were determined for the targeted microorganisms, M. restricta and S. aureus on plate (1), (2), and (3) as compared to the respective M. restricta or S. aureus growth on control plate
# S. aureus = assay: Overlay assay, Log10 reduction (Kill) of S. aureus; assay type: cell-based, Staphylococcus aureus
# Description: as §1, §2, §3
compound,measurement,setting,value
"OC[C@H]1O[C@H](O[C@H]2O[C@H](CO)[C@@H](O)[C@H](O)[C@H]2O)[C@H](O)[C@@H](O)[C@@H]1O [A, trehalose]",Log10 reduction (Kill) of M. restricta,"M. restricta; TSA plate cultured at 37° C. for four days, MLNA overlay, serially diluted M. restricta (ATCC 7877) dotted on, compared to growth on control plate",0
"OC[C@H]1O[C@H](O[C@H]2O[C@H](CO)[C@@H](O)[C@H](O)[C@H]2O)[C@H](O)[C@@H](O)[C@@H]1O [C, trehalose]",Log10 reduction (Kill) of S. aureus,"S. aureus; TSA plate cultured at 37° C. for four days, TSA overlay, serially diluted S. aureus (ATCC 6538) dotted on, compared to growth on control plate",1
OC[C@H]1O[C@H](O[C@H]2O[C@H](CO)[C@@H](O)[C@H](O)[C@H]2O)[C@H](O)[C@@H](O)[C@@H]1O [Trehalose],effectiveness against Staphylococcus aureus,"S. aureus; in the presence of S. hominis, conclusion from Table 4",effective
same,effectiveness against Malassezia restricta,"M. restricta; in the presence of S. hominis, conclusion from Table 3",effective
